Laboratory results as given in US6462060B2, “Heterocyclic-hydroxyimino-fluorene nuclei compounds and pharmaceutical compositions for inhibiting protein kinases, and methods for their use” (Agouron Pharmaceuticals, Inc., priority 2000, dated 2002).
pIC50, pKi: −log10 of the molar value.

How the values were obtained:
CDK4/Cyclin D3 complex = biological target: T1, CDK4/Cyclin D3 complex (Homo sapiens, UniProt P11802); assay: CDK4/Cyclin D assay (32P incorporation into Rb fragment); type: biochemical; conditions: apparent Ki; 50 nM CDK4/Cyclin D3 complex, 25 μM ATP
T1 construct: made in house; host or cells: insect cells co-infected with baculovirus expression vectors
T1 sequence (P11802 whole entry, the tested form may be a part): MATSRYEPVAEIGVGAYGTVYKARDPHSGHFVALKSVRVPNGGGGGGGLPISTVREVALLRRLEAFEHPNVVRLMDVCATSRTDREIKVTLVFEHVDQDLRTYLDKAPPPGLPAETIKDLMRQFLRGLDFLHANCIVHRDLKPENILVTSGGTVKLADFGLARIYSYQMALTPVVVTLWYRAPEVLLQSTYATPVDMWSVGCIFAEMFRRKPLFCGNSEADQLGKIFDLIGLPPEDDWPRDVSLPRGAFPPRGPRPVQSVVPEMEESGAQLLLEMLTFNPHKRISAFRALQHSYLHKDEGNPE
T1 sequence (P30281 whole entry partner, the tested form may be a part): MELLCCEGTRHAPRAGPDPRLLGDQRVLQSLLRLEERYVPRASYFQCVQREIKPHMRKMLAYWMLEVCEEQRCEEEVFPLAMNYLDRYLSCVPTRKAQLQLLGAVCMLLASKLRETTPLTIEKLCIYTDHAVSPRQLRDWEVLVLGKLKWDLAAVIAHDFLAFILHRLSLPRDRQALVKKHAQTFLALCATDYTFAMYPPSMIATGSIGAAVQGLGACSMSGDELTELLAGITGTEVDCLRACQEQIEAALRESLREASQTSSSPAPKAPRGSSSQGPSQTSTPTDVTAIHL
Description: CDK4/Cyclin D Construct for Assay: A complex of human CDK4 and cyclin D3, or a complex of cyclin D1 and a fusion protein of human CDK4 and glutathione-S-transferase (GST-CDK4), was purified using traditional biochemical chromatographic techniques from insect cells that had been co-infected with the corresponding baculovirus expression vectors.
(§1) CDK2/Cyclin A and CDK4/Cyclin D Assays
Cyclin-dependent kinase activity was measured by quantifying the enzyme-catalyzed, time-dependent incorporation of radioactive phosphate from [^32P]ATP into a recombinant fragment of the retinoblastoma protein. Unless noted otherwise, assays were performed in 96-well plates in a total volume of 50 μL, in the presence of 10 mM HEPES (N-[2-hydroxyethyl]piperazine-N′-[2-ethanesulfonic acid]) (pH 7.4), 10 mM MgCl2, 25 μM adenosine triphosphate (ATP), 1 mg/mL ovalbumin, 5 μg/mL leupeptin, 1 mM dithiothreitol, 10 mM β-glycerophosphate, 0.1 mM sodium vanadate, 1 mM sodium fluoride, 2.5 mM ethylene glycol-bis(β-aminoethyl ether)-N,N,N′N′-tetraacetic acid (EGTA), 2% (v/v) dimethylsulfoxide, and 0.03-0.2 μCi [^32P]ATP. The substrate (0.3-0.5 μg) was purified recombinant retinoblastoma protein fragment (Rb) (residues 386-928 of the native retinoblastoma protein; 62.3 kDa, containing the majority of the phosphorylation sites found in the native 1 06kDa protein, as well as a tag of six histidine residues for ease of purification). Reactions were initiated with CDK2 (150 nM CDK2/Cyclin A complex) or CDK4 (50 nM CDK4/Cyclin D3 complex), incubated at 30° C., and terminated after 20 minutes by the addition of ethylenediaminetetraacetic acid (EDTA) to 250 mM. The phosphorylated substrate was then captured on a nitrocellulose membrane using a 96-well filtration manifold, and unincorporated radioactivity was removed by repeated washing with 0.85% phosphoric acid. Radioactivity was quantified by exposing the dried nitrocellulose membranes to a phosphorimager. Apparent Ki values were measured by assaying enzyme activity in the presence of different compound concentrations and subtracting the background radioactivity measured in the absence of enzyme. The kinetic parameters (kcat, Km for ATP) were measured for each enzyme under the usual assay conditions by determining the dependence of initial rates on ATP concentration. The data were fit to an equation for competitive inhibition using Kaleidagraph (Synergy Software), or were fit to an equation for competitive tight-binding inhibition using the software KineTic (BioKin, Ltd.). The specific activity of CDK4 was the same whether complexed to full-length cyclin D3 or the truncated Cyclin D3 construct; both complexes also yielded very similar Ki values for selected inhibitors.

[1] = biological target: T2, phosphorylated VEGF-R2Δ50 (FLVK-P) (Homo sapiens, UniProt P35968, DEL940-989/E990V); assay: VEGF-R2 coupled spectrophotometric (FLVK-P) assay; type: biochemical; conditions: phosphorylated VEGF-R2Δ50, 1 mM ATP
T2 construct: VEGF-R2Δ50 contains residues 806-939 and 990-1171; made in house; host or cells: baculovirus/insect cell system
T2 sequence (P35968 with tags, fused parts or gaps DEL940-989/E990V limits assumed): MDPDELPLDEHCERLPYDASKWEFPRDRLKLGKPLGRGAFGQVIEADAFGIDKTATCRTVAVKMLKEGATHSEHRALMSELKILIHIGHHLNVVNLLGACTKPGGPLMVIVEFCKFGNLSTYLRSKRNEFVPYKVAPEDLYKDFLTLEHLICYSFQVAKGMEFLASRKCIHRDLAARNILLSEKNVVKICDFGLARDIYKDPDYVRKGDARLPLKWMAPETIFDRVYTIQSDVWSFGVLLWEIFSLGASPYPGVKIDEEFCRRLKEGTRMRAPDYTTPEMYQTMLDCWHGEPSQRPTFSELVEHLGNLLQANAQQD
Description: VEGF-R2 Construct for Assay: A construct (VEGF-R2Δ50) of the cytosolic domain of human vascular endothelial growth factor receptor 2 (VEGF-R2) lacking the 50 central residues of the 68 residues of the kinase insert domain was expressed in a baculovirus/insect cell system. Of the 1356 residues of full-length VEGF-R2, VEGF-R2Δ50 contains residues 806-939 and 990-1171, and also one point mutation (E990V) within the kinase insert domain relative to wild-type VEGF-R2. See McTigue et al., Structure, 7, 319-330 (1999); U.S. patent application Ser. No. 09/390,326, filed Sep. 7, 1999. Autophosphorylation of the purified construct was performed by incubation of the enzyme at a concentration of 4 μM in the presence of 3 mM ATP and 40 mM MgCl2 in 100 mM Hepes, pH 7.5, containing 5% glycerol and 5 mM DTT, at 4° C. for 2 h. […] See Parast et al., Biochemistry, 37, 16788-16801 (1998).
Coupled Spectrophotometric (FLVK-P) Assay
The production of ADP from ATP that accompanies phosphoryl transfer was coupled to oxidation of NADH using phosphoenolpyruvate (PEP) and a system having pyruvate kinase (PK) and lactic dehydrogenase (LDH). The oxidation of NADH was monitored by following the decrease of absorbance at 340 nm (e340=6.22 cm^−1 mM^−1) using a Beckman DU 650 spectrophotometer. Assay conditions for phosphorylated VEGF-R2Δ50 (indicated as FLVK-P in the tables below) were the following: 1 mM PEP; 250 μM NADH; 50 units of LDH/mL; 20 units of PK/mL; 5 mM DTT; […]; 1 mM ATP; and 25 mM MgCl2 in 200 mM Hepes, pH 7.5. Assay conditions for unphosphorylated VEGF-R2Δ50 (indicated as FLVK in the tables) were the following: 1 mM PEP; 250 ,M NADH; 50 units of LDH/mL; 20 units of PK/mL; 5 mM DTT; 20 mM poly(E4Y1); 3 mM ATP; and 60 mM MgCl2 and 2 mM MnCl2 in 200 mM Hepes, pH 7.5. Assays were initiated with 5 to 40 nM of enzyme. Ki values were determined by measuring enzyme activity in the presence of varying concentrations of test compounds. The data were analyzed using Enzyme Kinetic and Kaleidagraph software.

CHK-1 KH289 = biological target: T3, CHK-1 KH289 (Homo sapiens, UniProt O14757); assay: CHK-1 assay (coupled spectrophotometric, Syntide-2); type: biochemical; conditions: for pKi: 10 nM CHK-1 KH289, 0.15 mM ATP
T3 construct: CHK-1 KH289 contains residues 1-289 of human CHK-1; 6xHis (C); made in house; host or cells: baculovirus/insect cell system
T3 sequence (O14757 1-289): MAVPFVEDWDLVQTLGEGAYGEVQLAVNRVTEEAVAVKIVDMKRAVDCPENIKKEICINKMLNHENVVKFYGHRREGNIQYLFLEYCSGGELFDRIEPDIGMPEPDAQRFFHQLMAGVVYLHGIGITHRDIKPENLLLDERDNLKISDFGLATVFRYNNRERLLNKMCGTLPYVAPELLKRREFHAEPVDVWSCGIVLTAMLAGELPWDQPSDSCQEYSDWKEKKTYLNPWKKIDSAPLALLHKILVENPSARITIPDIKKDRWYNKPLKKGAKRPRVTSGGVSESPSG
Description: CHK-1 KH289 contains residues 1-289 of human CHK-1 including the kinase domain. It contains 6 histidine residues (6×His-tag) at the C-terminus of residue 289. The protein was expressed in a baculovirus/insect cell system and purified by conventional chromatographic techniques.
(§2) The production of ADP from ATP that accompanies phosphoryl transfer to the synthetic substrate peptide Syntide-2 ([…]) was coupled to oxidation of NADH using phosphoenolpyruvate (PEP) through the actions of pyruvate kinase (PK) and lactic dehydrogenase (LDH). The oxidation of NADH was monitored by following the decrease of absorbance at 340 nm (ε340=6.22 cm^−1 mM^−1) using a HP8452 spectrophotometer. Typical reaction solutions contained: 4 mM PEP; 0.15 mM NADH; 28 units of LDH/ml; 16 units of PK/ml; 3 mM DTT; 0.125 mM Syntide2Σ; 0.15 mM ATP; 25 mM MgCl2 in 50 mM TRIS, pH 7.5; and 400 mM NaCl. Assays were initiated with 10 nM of CHK-1 KH289. Ki values were determined by measuring initial enzyme activity in the presence of varying concentrations of test compounds. The data were analyzed using Enzyme Kinetic and Kaleidagraph software.

CDK2/Cyclin A complex = CDK2/Cyclin A complex (Homo sapiens, UniProt P24941); assay: CDK2/Cyclin A assay (32P incorporation into Rb fragment); type: biochemical; conditions: apparent Ki; 150 nM CDK2/Cyclin A complex, 25 μM ATP
Description: CDK2/Cyclin A Construct for Assay: CDK2 was purified using published methodology (Rosenblatt et al., J. Mol. Biol., 230, 1317-1319 (1993)) from insect cells that had been infected with a baculovirus expression vector. Cyclin A was purified from E. coli cells expressing full-length recombinant cyclin A, and a truncated cyclin A construct was generated by limited proteolysis and purified as described previously (Jeffrey et al., Nature, 376, 313-320 (1995)).
as §1
Cyclin-dependent kinase activity was measured by quantifying the enzyme-catalyzed, time-dependent incorporation of radioactive phosphate from [^32P]ATP into a recombinant fragment of the retinoblastoma protein. […] The phosphorylated substrate was then captured on a nitrocellulose membrane using a 96-well filtration manifold, and unincorporated radioactivity was removed by repeated washing with 0.85% phosphoric acid. Radioactivity was quantified by exposing the dried nitrocellulose membranes to a phosphorimager. Apparent Ki values were measured by assaying enzyme activity in the presence of different compound concentrations and subtracting the background radioactivity measured in the absence of enzyme. The kinetic parameters (kcat, Km for ATP) were measured for each enzyme under the usual assay conditions by determining the dependence of initial rates on ATP concentration. […]

HCT 116 cells = assay: Inhibition of cell growth, MTT assay, HCT 116; type: cell-based; conditions: Homo sapiens, HCT-116, 144 h, four to six days incubation
Description: (§3) Inhibition of Cell Growth: Assessment of Anti-proliferation with U2-OS, SAOS2, HCT116 Cancer Cell Lines
(§4) Inhibition of cell growth was measured using the tetrazolium salt assay, which is based on the ability of viable cells to reduce 3-(4,5-dimethylthiazol-2-yl)-2,5-[2H]-diphenyltetrazolium bromide (MTT) to formazan (Mossman, J. Immunological Methods, 65, 55-58 (1983)). The water-insoluble purple formazan product was then detected spectrophotometrically. The HCT 116, U2-OS, and SAOS 2 cell lines were each grown in 96-well plates, respectively. Cells were plated in the appropriate medium at a volume of 135 μL/well in McCoy's 5A Medium. Plates were incubated for 4 h before addition of inhibitor compounds.
(§5) Different concentrations of inhibitor compounds were added in 0.5% (v/v) dimethylsulfoxide (μL/well), and cells were incubated at 37° C. (5% CO2) for four to six days (depending on cell type). At the end of the incubation, MTT was added to a final concentration of 0.2 mg/mL, and cells were incubated for 4 h more at 37° C. After centrifugation of the plates and removal of medium, the absorbance of the formazan (solubilized in dimethylsulfoxide) was measured at 540 nm. The concentration of inhibitor compound causing 50% inhibition of growth was determined from the linear portion of a semi-log plot of inhibitor concentration versus percentage inhibition. […]

U2-OS cells = assay: Inhibition of cell growth, MTT assay, U2-OS; type: cell-based; conditions: Homo sapiens, U2OS, 144 h, four to six days incubation
Description: as §3, §4, §5

SAOS 2 cells = assay: Inhibition of cell growth, MTT assay, SAOS 2; type: cell-based; conditions: Homo sapiens, SAOS-2, 144 h, four to six days incubation, read-out: SAOS2 IC50
Description: as §3, §4, §5

CDS1/CHK-2 (CDS1 CE4) = biological target: T4, CDS1/CHK-2 (CDS1 CE4) (Homo sapiens, UniProt O96017); assay: CDS1 assay (conditions identical to the CHK-1 assay); type: biochemical; conditions: 10 nM CDS1
T4 construct: CDS1 CE4 contains residues 209-502 including the kinase domain; 6xHis leader with thrombin site; first M absent from the expressed protein) (N); made in house; host or cells: E. coli
T4 sequence (O96017 209-502): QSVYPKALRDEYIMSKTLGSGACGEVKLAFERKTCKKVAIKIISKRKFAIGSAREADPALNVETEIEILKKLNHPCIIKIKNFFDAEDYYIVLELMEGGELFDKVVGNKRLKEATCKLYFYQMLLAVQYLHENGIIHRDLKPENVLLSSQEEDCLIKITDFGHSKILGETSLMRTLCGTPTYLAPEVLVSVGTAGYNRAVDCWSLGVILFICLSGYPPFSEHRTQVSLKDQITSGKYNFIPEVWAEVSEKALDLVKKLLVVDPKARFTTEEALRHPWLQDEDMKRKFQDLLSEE
Description: CDS1 Construct for Assay: CDS1 CE4 contains residues 209-502 including the kinase domain of human CDS1/CHK-2 (GenBank accession number AFO86904, Matsuoka et al., Science, 282, 1893-97 (1998)). It contains the amino acid sequence: […] at the N-terminus of residue 209. (The first M is not present in the expressed protein due to post-translational processing of the N-terminus.) The protein was expressed in E. coli and purified by conventional chromatographic techniques.
as §2
The CDS 1 assay was prepared under identical conditions to that of the CHK-1 assay, except with the use of 10 nM of CDS1.

SMILES | pKi (CDK4/Cyclin D3 complex) | pKi [1] | pKi (CHK-1 KH289) | melting point | pKi (CDK2/Cyclin A complex) | pIC50 (HCT 116 cells) | pIC50 (U2-OS cells) | pIC50 (SAOS 2 cells) | pKi (CDS1/CHK-2 (CDS1 CE4)) | inhibition at 10 µM (CHK-1 KH289; at 10 μM, read-out: CHK-1 KH289 percent inhibition) | inhibition at 25 µM (CHK-1 KH289; at 25 μM, read-out: CHK-1 KH289 percent inhibition)
ON=C1c2ccccc2-c2cc3[nH]cnc3cc21 (mixture of isomers) [Example A, 9(E/Z)-Hydroxyimino-3H-fluoreno[2,3-d]imidazole] | 5.63 | 5.88 | 5.44 | – | – | – | – | – | – | – | –
Nc1nc2cc3c(cc2[nH]1)-c1ccccc1C3=NO (mixture of isomers) [Example B, 2-Amino-9(E/Z)-hydroxyimino-3H-fluoreno[2,3-d]imidazole] | 6.10 | 5.72 | 5.24 | 240 to 242 °C | – | – | – | – | – | – | –
ON=C1c2ccccc2-c2cc3[nH]nnc3cc21 (mixture of isomers) [Example C, 9(E/Z)-Hydroxyimino-3H-fluoreno[2,3-d]-1,2,3-triazole] | 6.67 | 5.83 | 6.24 | – | 6.17 | 4.98 | 4.74 | 4.96 | – | – | –
ON=C1c2cc(I)ccc2-c2cc3[nH]nnc3cc21 (mixture of isomers) [Example D, 9(E/Z)-Hydroxyimino-7-iodo-3H-fluoreno[2,3-d]-1,2,3-triazole] | 5.92 | – | 6.78 | – | – | – | – | – | 7.68 | – | –
O/N=C1/c2ccccc2-c2nc3nonc3nc21 [Comparison Ex. 1, reference compound] | 5.68 | 4.80 | 4.58 | – | – | – | – | – | 4.82 | – | –
Nc1cc2c(cc1[N+](=O)[O-])-c1ccccc1C2=NO [Comparison Ex. 2(a), reference compound] | 5.75 | 4.81 | – | – | – | – | – | – | – | 14% | –
Nc1cc2c(cc1N)-c1ccccc1C2=NO [Comparison Ex. 2(b), reference compound] | 5.49 | 6.03 | 5.09 | – | – | – | – | – | 6.22 | – | –
Nc1cc2c(cc1[N+](=O)[O-])-c1cc([N+](=O)[O-])c(N)cc1C2=NO [Comparison Ex. 2(c), reference compound] | 5.44 | – | – | – | – | – | – | – | 4.43 | – | 33%
